Columns and labels:
Sphaerotheca fuliginea = assay: Cucumber Powdery Mildew (CPM) protectant test in the greenhouse; assay type: in vivo; settings: 100 is total disease control, 0 is no disease control; for pest or weed control at 300 g/ha: Podosphaera fuliginea, topical, 168 h, read-out: Cucumber Powdery Mildew (CPM) protectant fungicide data, percent control; for Cucumber Powdery Mildew (CPM) protectant fungicide data, percent control: 300 g/ha
In short: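 Protectant format: one day after spraying with test compound (A/M/W 1:1:2), cotyledon-plus-one-leaf cucumber plants were misted with Sphaerotheca spores at 2×10^5/ml. Greenhouse disease development; percent control scored at day 7 (100 = total, 0 = none).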

Pyricularia oryzae = assay: whole plant or invertebrate; assay type: in vivo; settings: 100 is total disease control, 0 is no disease control; for pest or weed control at 300 g/ha: Pyricularia oryzae, topical, 144 h, read-out: Rice Blast (RB) protectant fungicide data, percent control, protectant, 300 g/ha, greenhouse; for Rice Blast (RB) protectant fungicide data, percent control: 300 g/ha, greenhouse

Row | SMILES | pest or weed control at 300 g/ha (Sphaerotheca fuliginea) [%] | pest or weed control at 300 g/ha (Pyricularia oryzae) [%] | Cucumber Powdery Mildew (CPM) protectant fungicide data, percent control (Sphaerotheca fuliginea) [percent control] | Rice Blast (RB) protectant fungicide data, percent control (Pyricularia oryzae) [percent control]
1 | C=CCOC(=O)N1CC(=O)N(CC(F)(F)F)N=C1c1cc(Cl)cc(Cl)c1 [Compound 10, 1-(2,2,2-trifluoroethyl)-3-(3,5-dichlorophenyl)-4-allyloxycarbonyl-4,5-dihydro-1,2,4-triazin-6-one] | 0 | 90 |  | 
2 | CCCCN1N=C(c2ccc(OCC)cc2)NCC1=O [Compound 116] |  |  | 0 | 85
3 | Cc1cc(C)cc(C2=NN(CC(F)(F)F)C(=O)CN2)c1 [Compound 296] |  |  | 75 | 98
4 | CCOC(=O)CN1N=C(c2ccc(Cl)c(Cl)c2)NCC1=O [Compound 102] |  |  | 50 | 85
5 | O=C1CNC(C2CCCCC2)=NN1CC(F)(F)F [Compound 45] |  |  | 0 | 75
6 | Cc1c(Cl)cc(C2=NN(CC(F)(F)F)C(=O)CN2)cc1Cl [Compound 47] |  |  | 80 | 100
7 | O=C1CN(CC2CC2)C(c2ccc(F)c(Br)c2)=NN1CC1CC1 [Compound 219] |  |  | 75 | 50
8 | CCCCN1N=C(C)NC(c2ccc(C)cc2)C1=O (centres unmarked) [Compound 75] |  |  | 85 | 0
9 | C#CCN1CC(=O)N(CC(F)(F)F)N=C1c1cccc(C(F)(F)F)c1 [Compound 89] |  |  | 0 | 75
10 | CCCCN1N=C(c2cc(Cl)cc(Cl)c2)N(C(=O)OCI)CC1=O [Compound 16, 1-(n-butyl)-3-(3,5-dichlorophenyl)-4-(iodomethyloxycarbonyl)-4,5-dihydro-1,2,4-triazin-6-one] | 75 | 90 |  | 
11 | CCCCN1N=C(C)NC(c2cccc(N)c2)C1=O (centres unmarked) [Compound 78] |  |  | 25 | 0
12 | CCCCCCN1N=C(c2ccc(Cl)cc2)NCC1=O [Compound 55] |  |  | 50 | 90
13 | C=CC1NC(c2ccc(Cl)c(Cl)c2)=NN(CCCC)C1=O (centres unmarked) [Compound 202] |  |  | 0 | 90
14 | CCCN1N=C(c2cc(Cl)cc(Cl)c2)NCC1=O [Compound 164] |  |  | 95 | 100
15 | CCCCN1N=C(c2cc(Cl)cc(Cl)c2)N(C(=O)OCOC(C)=O)CC1=O [Compound 118] |  |  | 0 | 90
16 | CCCCN1N=C(C)NC(c2ccccc2C)C1=O (centres unmarked) [Compound 76] |  |  | 25 | 0
17 | CCCCN1N=C(C)NC(c2cccc(C)c2)C1=O (centres unmarked) [Compound 77] |  |  | 50 | 0
18 | CCCCN1N=C(c2cccc(C(F)(F)F)c2)NCC1=O [Compound 115] |  |  | 50 | 100
19 | O=C1CNC(c2ccc(C(F)(F)F)cc2)=NN1CC(F)(F)F [Compound 51] |  |  | 0 | 90
20 | O=C1CNC(c2ccc(-c3ccccc3)cc2)=NN1CC(F)(F)F [Compound 146] |  |  | 85 | 95

Row | SMILES | pest or weed control at 300 g/ha (Sphaerotheca fuliginea) [%] | pest or weed control at 300 g/ha (Pyricularia oryzae) [%] | Cucumber Powdery Mildew (CPM) protectant fungicide data, percent control (Sphaerotheca fuliginea) [percent control] | Rice Blast (RB) protectant fungicide data, percent control (Pyricularia oryzae) [percent control]
21 | C#CCN1CC(=O)N(CCCC)N=C1c1ccc(Cl)c(Cl)c1 [Compound 168] |  |  | 50 | 95
22 | CCCCC1=NN(c2ccc(Cl)cc2)C(=O)CN1 [Compound 204] |  |  | 85 | 75
23 | O=C1CNC(c2c(Cl)cncc2Cl)=NN1CC(F)(F)F [Compound 159] |  |  | 0 | 85
24 | CCOCCN1N=C(c2cc(Cl)cc(Cl)c2)NCC1=O [Compound 108] |  |  | 85 | 90
25 | O=C1CNC(c2ccc(-c3csnn3)cc2)=NN1CC(F)(F)F [Compound 144] |  |  | 0 | 85
26 | C#CCSC(=S)N1CC(=O)N(CCCC)N=C1c1ccc(Cl)c(Cl)c1 [Compound 192] |  |  | 75 | 99
27 | CCCCN1N=C(c2cc(Cl)cc(Cl)c2)N(C(=O)OCCl)CC1=O [Compound 15, 1-(n-butyl)-3-(3,5-dichlorophenyl)-4-(chloromethyloxycarbonyl)-4,5-dihydro-1,2,4-triazin-6-one] | 50 | 75 |  | 
28 | O=C1CNC(c2ccc(Cl)c(Cl)c2)=NN1CC1CC1 [Compound 9, 1-Cyclopropylmethyl-3-(3,4-dichlorophenyl)-4,5-dihydro-1,2,4-triazin-6-one] | 80 | 100 |  | 
29 | O=C1CNC(c2ccccc2)=NN1 [Compound 32] |  |  | 50 | 75
30 | C#CCOC(=O)N1CC(=O)N(CCCC)N=C1c1ccc(Cl)c(Cl)c1 [Compound 171] |  |  | 50 | 80
31 | CCCCN1N=C(c2ccc(Cl)c(Cl)c2)N(C(=O)OCCCl)CC1=O [Compound 179] |  |  | 0 | 75
32 | Cc1ccccc1-c1nn(CC(F)(F)F)c(=O)c(=O)[nH]1 [Compound 291] | 0 | 80 |  | 
33 | CCCCN1N=C(c2cccc(F)c2)NCC1=O [Compound 221] |  |  | 80 | 85
34 | N#CCn1nc(-c2ccc(Cl)cc2)ncc1=O [Compound 264] |  |  | 0 | 50
35 | C#CCN1CC(=O)N(CCCC)N=C1c1cc(Cl)cc(Cl)c1 [Compound 131] |  |  | 75 | 80
36 | CCCCN1N=C(c2cccc(C3=NN(CCCC)C(=O)CN3)c2)NCC1=O [Compound 232] |  |  | 99 | 100
37 | CCCCN1N=C(c2ccc(F)c(Br)c2)NCC1=O [Compound 207] |  |  | 85 | 100
38 | CCOC(=O)N1C(c2cc(Cl)cc(Cl)c2)=NN(CC(F)(F)F)C(=O)C1OC (centres unmarked) [Compound 214] |  |  | 85 | 50
39 | CC=CC(=O)N1CC(=O)N(CCCC)N=C1c1ccc(Cl)c(Cl)c1 [Compound 177] |  |  | 50 | 95
40 | CCCCOc1ccc(-c2ncc(=O)n(CCC)n2)cc1 [Compound 280] |  |  | 0 | 50

— patent publication US7494996B2 (priority 2000, dated 2009)
